Source: US11229628B2, “TRPA1 and TRPV4 inhibitors and methods of using the same for organ-specific inflammation and itch” (Duke University, priority 2015, dated 2022)
“Also recorded” adds a separate entry of the source.

What was measured:
TRPV4 [1] = biological target: TRPV4 (Homo sapiens, UniProt Q9HBA0); assay: UVB-evoked Ca++ transient in TRPV4-transfected HEK293T cells; type: cell-based; parameters: expressed in transfected cells; host or cells: HEK293T cells; conditions: pre-exposure to 20 μM GSK205
TRPV4 (Homo sapiens, UniProt Q9HBA0), sequence (Q9HBA0 whole entry, species assumed): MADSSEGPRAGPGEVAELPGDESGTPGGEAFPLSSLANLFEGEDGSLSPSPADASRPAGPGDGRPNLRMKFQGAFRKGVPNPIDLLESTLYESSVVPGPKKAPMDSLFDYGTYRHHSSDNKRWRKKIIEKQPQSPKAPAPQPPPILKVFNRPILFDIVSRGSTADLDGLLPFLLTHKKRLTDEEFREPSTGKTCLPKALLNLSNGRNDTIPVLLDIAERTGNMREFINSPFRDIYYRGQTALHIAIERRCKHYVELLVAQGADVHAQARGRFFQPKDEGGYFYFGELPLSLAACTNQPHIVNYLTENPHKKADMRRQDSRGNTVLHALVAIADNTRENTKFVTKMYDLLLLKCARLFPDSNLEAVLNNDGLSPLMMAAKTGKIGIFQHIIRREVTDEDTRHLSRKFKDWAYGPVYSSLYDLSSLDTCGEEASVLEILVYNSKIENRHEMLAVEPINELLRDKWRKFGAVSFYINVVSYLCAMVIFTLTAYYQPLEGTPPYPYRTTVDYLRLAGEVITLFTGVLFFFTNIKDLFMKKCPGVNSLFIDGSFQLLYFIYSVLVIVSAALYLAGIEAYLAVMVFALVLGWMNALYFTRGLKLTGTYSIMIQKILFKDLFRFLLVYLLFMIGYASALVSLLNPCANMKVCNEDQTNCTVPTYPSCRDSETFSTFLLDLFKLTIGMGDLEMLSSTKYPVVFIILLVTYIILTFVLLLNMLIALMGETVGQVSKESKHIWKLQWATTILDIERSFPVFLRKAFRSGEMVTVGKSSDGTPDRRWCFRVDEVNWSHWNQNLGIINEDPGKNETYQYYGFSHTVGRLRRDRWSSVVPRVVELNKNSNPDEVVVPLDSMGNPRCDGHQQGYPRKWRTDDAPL
Excerpt: (B) Focusing properties of the ball lens. […] (E) TRPV3 activation experiment. […] (F) TRPV4 selective activator GSK101-related findings.
To assess whether TRPV4 is sufficient for the UVB-evoked Ca++ influx, we introduced high levels of TRPV4 into HEK293 epithelial cells. TRPV4 expression endowed these cells with the ability to generate robust Ca++ signaling in response to UVB (FIG. 2G). Moreover, if they were pre-exposed to GSK205, the response was blocked. Thus, heterologous TRPV4 expression is sufficient for UVB radiation to cause a cellular Ca++ transient.

ET1 expression in 1° MK = assay: ET1 expression by UVB-exposed 1° MK (immunocytochemistry); type: cell-based, mouse; conditions: 295 nm UVB-LED, 24 hours
Protocol: 1° MK were exposed to UVB using the UV optical system (295 nm LED). 24 hours later the cells were fixed and fluorescently immunolabeled for ET1. Digital images were captured and subjected to morphometry.
Mouse keratinocytes were cultured on collagen coated quartz coverslips and then stimulated from the bottom using the previously mentioned UV optical system using the 295 nm LED. 24 hours later the cells were fixed in 4% formaldehyde in PBS for 20 minutes, permeabilized with 0.1% Triton X-100 in PBS for 10 minutes, washed, then blocked in 10% normal goat serum in PBS for 45 minutes. Coverslips were incubated overnight with primary antibody mouse anti-ET1 (1:200; Abcam), washed three times in PBS and incubated with secondary antibody for 2 hours at 25° C. Coverslips were washed three times in PBS, once with double-distilled H2O. Digital images were captured using a 40× immersion lens on the BX61 Olympus upright microscope. Morphometric analysis was conducted using ImageJ freeware with tailored regions-of-interest.
We tested whether UVB causes ET1 upregulation in a TRPV4-dependent manner. Given the exquisite wave-length dependence of ET1 expression in 1° MKs, we resorted to the UVB-LED device as for Ca++ imaging (FIG. 6A and FIG. 2A-D). […] Consistent with its effects on UVB-evoked Ca++ transients, PLC-inhibitor U73122 also dampened ET1 expression. […] This leads to TRPV4-dependent Ca++ signaling, which in turn amplifies ET1 signaling in a paracrine/autocrine fashion.

TRPV4 [2] = biological target: T1, TRPV4 (Mus musculus, UniProt Q9EPK8); assay: GSK101-evoked Ca++ transient in 1° MK (fura-2); type: cell-based; conditions: 5 nM GSK101; 20 μM GSK205
T1 construct: Primary mouse keratinocytes were derived from back skin of newborn mice; endogenous in cells; host or cells: primary mouse epidermal keratinocytes (1° MK), wild type
T1 sequence (Q9EPK8 whole entry): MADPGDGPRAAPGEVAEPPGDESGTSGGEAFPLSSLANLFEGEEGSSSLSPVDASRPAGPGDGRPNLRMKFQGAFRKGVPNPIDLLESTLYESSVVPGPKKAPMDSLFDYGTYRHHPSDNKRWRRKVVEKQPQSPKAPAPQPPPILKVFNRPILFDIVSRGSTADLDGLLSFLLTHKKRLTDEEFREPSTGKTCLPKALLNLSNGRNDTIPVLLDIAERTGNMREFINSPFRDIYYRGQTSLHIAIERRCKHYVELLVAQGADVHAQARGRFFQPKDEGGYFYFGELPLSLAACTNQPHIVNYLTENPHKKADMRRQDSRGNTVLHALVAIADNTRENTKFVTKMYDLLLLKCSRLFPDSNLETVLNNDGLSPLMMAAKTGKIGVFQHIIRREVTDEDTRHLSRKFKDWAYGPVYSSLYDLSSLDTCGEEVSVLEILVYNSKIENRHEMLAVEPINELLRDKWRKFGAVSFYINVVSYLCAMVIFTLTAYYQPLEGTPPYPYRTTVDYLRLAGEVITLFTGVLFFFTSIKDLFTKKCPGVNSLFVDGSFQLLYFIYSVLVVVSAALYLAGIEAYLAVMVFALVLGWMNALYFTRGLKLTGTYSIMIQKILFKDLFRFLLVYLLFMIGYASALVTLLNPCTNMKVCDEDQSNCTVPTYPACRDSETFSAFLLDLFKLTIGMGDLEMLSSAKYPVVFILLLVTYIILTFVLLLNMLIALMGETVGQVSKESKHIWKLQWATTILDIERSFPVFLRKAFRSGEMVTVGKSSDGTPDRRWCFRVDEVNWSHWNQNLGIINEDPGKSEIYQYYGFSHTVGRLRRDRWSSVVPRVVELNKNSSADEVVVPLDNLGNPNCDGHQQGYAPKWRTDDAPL
Protocol: (§1) Ca++ imaging of mouse 1° MK in response to chemical activation of TRPV4 was conducted after loading with 2 μM fura2-AM, following a ratiometric Ca2+ imaging protocol with 340/380 nm […] for dual excitation. Ratios of emissions were acquired at 0.5 Hz. ΔR/R0 was determined as the fraction of the increase of a given ratio over baseline ratio, divided by baseline ratio. For stimulation of cells with UVB, where fura-2 was not suitable because of the proximity of stimulation with 340/380 nm and 295 nm, 2 μM fluo4-AM was used instead. Ca++ imaging was carried out at 488 nm excitation, acquisition of emissions at 0.5 Hz, expressed as ΔF/F0. In the custom-built UV optical system, UV LEDs were capped with a ball lens, a transparent optical window in the shape of a hemispherical lens (FIG. 2B). The LED output optical beam focused at 15-20 mm from the lens, with a spot diameter of approximately 1.5˜2.0 mm (FIG. 2C). […] The thermal equilibration stage was set for physiological temperature. We confirmed the non-thermal nature of UVB stimulation using the customized 295 nm LED device in a dedicated experiment (FIG. 2D), thus confirming the specific modality of stimulation as UVB.
We obtained corroborating findings by chemically activating TRPV4 with GSK101, which can directly stimulate TRPV4 in WT 1° MK. […]

[3] = tested on: primary mouse epidermal keratinocytes (1° MK); assay: UVB-evoked Ca++ signaling in primary mouse keratinocytes (fluo-4 imaging); type: cell-based
Protocol: Ca++ imaging of 1° MK was conducted following routine procedures. For UVB stimulation, a customized device was built. The system comprised a printed circuit board for electrical interconnects and mechanical support and an ultraviolet light-emitting diode (UV LED).
The operating wavelength was 295 nm (FIG. 2A), with a full-width half-max of 12 nm. The optical power was 500 mW. The focal point was aimed at the plane of the upper surface of the quartz coverslip, which was used to minimize UV absorption along the optical path towards the cells (FIG. 2A-C). The optical intensity at the focal point was estimated to be 150 mW/mm^2.
as §1, with “temperature.” for “temperature. We confirmed the non-thermal nature of UVB stimulation using the customized 295 nm LED device in a dedicated experiment (FIG. 2D), thus confirming the specific modality of stimulation as UVB.”
To further dissect the underlying mechanisms involved, we built a customized device for specific and narrow-band UVB stimulation of primary mouse epidermal keratinocytes (1° MK) cultured in vitro (FIG. 6A-B and FIG. 2A-D). This allowed use of the Ca++ sensitive dye, fluo-4, and assessment of 1° MK's Ca++ dynamics following UVB exposure (FIG. 6B). The elicited Ca++ signal was obliterated by a UV-refracting glass coverslip, underscoring the strict dependence of the calcium response on UVB (FIG. 6C and FIG. 2A).

## CN(CCc1ccc(Nc2nc(-c3cccnc3)cs2)cc1)Cc1ccccc1 [GSK205]
TRPV4 [1]
  UVB-evoked Ca++ signal in TRPV4-transfected HEK293T cells: blocked; also recorded: virtually eliminates
ET1 expression in 1° MK
  ET1 immunoreactivity in UVB-exposed 1° MK: diminished; also recorded: significant down-regulation
TRPV4 [2]
  GSK101-evoked Ca++ transient: eliminated; also recorded: completely blocked
[3]; UVB and ET1 co-exposure
  ET1-augmented UVB-evoked Ca++ signaling: greatly diminished
[3]; fluo-4 ΔF/F0, GSK205 20 μM
  UVB-evoked Ca++ signaling: very similar response to that of Trpv4−/− 1° MK; also recorded: strongly down-regulated; also recorded: significant attenuation
